Assay results taken from ChEMBL document CHEMBL5291721, “A preclinical secondary pharmacology resource illuminates target-adverse drug reaction associations of marketed drugs” (Nat Commun, 2023).
Blank lines part the entries; values can stand above or below the compound they belong to.

Legend:
[1] = target: Mu-type opioid receptor (Homo sapiens, UniProt P35372); test: biochemical; assay type: functional
[2] = target: 5-hydroxytryptamine receptor 2B (Homo sapiens, UniProt P41595)
[3] = target: T1, Alpha-1A adrenergic receptor (Homo sapiens, UniProt P35348)
T1 sequence (P35348 whole entry): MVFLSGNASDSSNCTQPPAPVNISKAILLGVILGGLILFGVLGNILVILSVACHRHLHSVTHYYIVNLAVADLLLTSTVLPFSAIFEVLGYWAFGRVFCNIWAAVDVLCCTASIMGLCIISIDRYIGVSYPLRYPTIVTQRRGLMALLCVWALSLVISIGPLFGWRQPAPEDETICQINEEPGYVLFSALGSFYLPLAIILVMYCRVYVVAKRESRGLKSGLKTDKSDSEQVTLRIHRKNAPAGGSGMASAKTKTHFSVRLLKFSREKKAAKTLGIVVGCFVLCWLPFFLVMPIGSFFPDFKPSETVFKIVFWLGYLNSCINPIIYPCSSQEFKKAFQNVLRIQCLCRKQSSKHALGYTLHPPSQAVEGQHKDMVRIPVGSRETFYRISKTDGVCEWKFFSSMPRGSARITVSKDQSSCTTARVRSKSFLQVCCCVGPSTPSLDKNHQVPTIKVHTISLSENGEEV

[4] = target: Beta-3 adrenergic receptor (Homo sapiens, UniProt P13945)
Beta-3 adrenergic receptor, sequence (P13945 whole entry): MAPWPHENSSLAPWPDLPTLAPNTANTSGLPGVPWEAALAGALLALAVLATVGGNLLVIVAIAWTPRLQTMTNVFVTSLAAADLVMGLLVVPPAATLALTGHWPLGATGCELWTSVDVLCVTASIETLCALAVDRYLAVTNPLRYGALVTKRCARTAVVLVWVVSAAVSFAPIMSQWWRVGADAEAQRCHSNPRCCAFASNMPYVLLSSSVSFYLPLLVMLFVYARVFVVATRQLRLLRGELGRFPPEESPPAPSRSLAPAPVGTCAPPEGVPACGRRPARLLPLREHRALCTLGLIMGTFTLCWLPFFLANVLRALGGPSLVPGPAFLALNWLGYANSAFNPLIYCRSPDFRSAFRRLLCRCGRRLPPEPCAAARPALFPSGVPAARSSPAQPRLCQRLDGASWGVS

[5] = target: Histamine H2 receptor (Homo sapiens, UniProt P25021)
Histamine H2 receptor, sequence (P25021 whole entry): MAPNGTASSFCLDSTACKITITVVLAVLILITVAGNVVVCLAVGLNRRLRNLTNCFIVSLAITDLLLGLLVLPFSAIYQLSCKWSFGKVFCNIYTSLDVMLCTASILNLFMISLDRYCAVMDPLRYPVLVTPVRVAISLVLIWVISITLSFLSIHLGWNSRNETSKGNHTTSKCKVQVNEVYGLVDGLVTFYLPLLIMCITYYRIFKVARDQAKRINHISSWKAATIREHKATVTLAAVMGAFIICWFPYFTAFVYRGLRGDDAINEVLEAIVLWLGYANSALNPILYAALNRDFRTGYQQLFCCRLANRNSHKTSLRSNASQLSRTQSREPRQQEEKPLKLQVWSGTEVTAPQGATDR

[6] = target: Gamma-aminobutyric acid receptor subunit alpha-1/alpha-2/beta-2/gamma-2 (Homo sapiens, UniProt P14867+P18507+P47869+P47870); assay type: protein-complex assay
Gamma-aminobutyric acid receptor subunit alpha-1/alpha-2/beta-2/gamma-2, sequence (P14867 whole entry): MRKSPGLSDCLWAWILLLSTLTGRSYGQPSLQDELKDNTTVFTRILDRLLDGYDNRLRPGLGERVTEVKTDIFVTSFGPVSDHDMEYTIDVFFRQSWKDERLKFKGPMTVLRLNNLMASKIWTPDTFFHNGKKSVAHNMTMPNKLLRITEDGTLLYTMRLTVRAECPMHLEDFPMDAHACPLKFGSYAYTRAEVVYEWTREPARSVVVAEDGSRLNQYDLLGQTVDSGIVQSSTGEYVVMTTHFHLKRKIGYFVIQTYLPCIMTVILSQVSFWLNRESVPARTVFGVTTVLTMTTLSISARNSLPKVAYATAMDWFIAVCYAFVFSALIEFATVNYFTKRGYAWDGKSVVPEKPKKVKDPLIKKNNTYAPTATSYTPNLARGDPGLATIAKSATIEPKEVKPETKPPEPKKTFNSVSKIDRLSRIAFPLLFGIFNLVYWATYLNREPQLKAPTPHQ
Gamma-aminobutyric acid receptor subunit alpha-1/alpha-2/beta-2/gamma-2, sequence (P47870 whole entry): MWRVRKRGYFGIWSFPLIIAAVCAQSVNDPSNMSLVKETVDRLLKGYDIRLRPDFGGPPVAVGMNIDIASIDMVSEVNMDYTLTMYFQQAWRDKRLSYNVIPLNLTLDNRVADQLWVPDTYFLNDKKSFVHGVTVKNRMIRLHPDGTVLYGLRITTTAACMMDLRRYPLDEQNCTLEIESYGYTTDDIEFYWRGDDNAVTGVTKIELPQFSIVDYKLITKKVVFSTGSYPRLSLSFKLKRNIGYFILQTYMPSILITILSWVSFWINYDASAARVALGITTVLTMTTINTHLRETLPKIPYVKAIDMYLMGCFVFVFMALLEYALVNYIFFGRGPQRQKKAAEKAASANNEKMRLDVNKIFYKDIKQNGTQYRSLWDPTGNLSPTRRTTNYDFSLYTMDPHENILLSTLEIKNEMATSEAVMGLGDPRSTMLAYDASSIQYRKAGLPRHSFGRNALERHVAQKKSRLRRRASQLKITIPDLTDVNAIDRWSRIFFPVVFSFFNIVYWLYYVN
Gamma-aminobutyric acid receptor subunit alpha-1/alpha-2/beta-2/gamma-2, sequence (P18507 whole entry): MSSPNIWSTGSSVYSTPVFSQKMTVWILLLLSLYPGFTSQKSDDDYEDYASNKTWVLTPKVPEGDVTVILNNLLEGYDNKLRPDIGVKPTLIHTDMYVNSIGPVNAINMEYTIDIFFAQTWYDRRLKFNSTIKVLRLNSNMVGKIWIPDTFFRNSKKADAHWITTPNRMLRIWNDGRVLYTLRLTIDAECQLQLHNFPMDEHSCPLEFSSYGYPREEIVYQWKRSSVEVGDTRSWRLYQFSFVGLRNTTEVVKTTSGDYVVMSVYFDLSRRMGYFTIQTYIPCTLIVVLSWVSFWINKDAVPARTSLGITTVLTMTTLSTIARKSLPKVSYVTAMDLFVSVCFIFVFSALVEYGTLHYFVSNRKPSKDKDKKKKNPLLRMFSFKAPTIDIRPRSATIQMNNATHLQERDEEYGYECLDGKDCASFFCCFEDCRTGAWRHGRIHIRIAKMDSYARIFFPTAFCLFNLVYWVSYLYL
Gamma-aminobutyric acid receptor subunit alpha-1/alpha-2/beta-2/gamma-2, sequence (P47869 whole entry): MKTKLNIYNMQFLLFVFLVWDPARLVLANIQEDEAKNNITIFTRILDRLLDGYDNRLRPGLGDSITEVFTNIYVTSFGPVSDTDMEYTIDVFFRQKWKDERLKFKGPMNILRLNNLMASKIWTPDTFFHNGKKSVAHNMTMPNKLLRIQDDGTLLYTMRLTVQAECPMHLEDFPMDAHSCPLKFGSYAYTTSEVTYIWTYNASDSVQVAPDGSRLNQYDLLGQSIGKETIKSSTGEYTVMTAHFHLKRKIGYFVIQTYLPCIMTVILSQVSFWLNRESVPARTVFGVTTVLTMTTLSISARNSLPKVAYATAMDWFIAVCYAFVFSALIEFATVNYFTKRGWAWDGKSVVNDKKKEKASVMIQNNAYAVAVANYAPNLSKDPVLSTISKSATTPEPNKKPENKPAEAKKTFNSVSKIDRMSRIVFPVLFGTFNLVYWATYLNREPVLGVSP

[7] = target: T2, Glucocorticoid receptor (Homo sapiens, UniProt P04150); assay type: functional
T2 sequence (P04150 whole entry): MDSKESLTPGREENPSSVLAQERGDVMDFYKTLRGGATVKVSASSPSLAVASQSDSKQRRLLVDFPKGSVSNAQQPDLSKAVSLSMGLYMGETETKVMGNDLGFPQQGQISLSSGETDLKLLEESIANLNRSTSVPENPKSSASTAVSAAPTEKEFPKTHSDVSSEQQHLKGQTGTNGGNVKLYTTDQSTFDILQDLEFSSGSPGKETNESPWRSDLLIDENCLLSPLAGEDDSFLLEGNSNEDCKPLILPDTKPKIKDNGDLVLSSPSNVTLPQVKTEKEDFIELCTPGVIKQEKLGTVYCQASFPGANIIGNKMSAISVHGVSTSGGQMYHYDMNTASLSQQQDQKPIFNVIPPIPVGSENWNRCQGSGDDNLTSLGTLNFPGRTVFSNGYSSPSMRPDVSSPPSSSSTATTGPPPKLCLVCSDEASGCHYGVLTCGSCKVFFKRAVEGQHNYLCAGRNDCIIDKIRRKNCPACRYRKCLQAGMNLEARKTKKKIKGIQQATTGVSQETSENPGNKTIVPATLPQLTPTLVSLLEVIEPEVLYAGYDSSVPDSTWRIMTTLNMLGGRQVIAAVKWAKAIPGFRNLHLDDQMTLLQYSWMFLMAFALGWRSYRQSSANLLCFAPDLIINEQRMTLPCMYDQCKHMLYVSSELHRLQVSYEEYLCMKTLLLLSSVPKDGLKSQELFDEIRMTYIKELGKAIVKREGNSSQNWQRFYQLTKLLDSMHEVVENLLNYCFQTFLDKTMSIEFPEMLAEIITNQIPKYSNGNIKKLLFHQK

[8] = target: T3, Peroxisome proliferator-activated receptor gamma (Homo sapiens, UniProt P37231); assay type: functional
T3 sequence (P37231 whole entry): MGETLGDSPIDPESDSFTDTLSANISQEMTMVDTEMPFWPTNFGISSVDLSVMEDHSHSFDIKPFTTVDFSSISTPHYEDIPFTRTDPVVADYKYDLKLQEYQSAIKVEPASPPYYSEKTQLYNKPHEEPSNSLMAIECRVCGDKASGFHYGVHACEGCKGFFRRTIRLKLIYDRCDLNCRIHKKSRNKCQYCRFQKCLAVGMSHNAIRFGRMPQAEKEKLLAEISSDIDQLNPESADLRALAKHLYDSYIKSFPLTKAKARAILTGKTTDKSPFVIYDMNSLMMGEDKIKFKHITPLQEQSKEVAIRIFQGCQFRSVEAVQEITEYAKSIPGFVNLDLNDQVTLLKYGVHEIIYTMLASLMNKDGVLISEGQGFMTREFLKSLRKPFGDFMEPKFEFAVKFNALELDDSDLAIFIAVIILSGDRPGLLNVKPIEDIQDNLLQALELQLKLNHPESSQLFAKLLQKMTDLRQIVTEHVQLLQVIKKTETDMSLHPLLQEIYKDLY
Further: assay procedure not described here.

Mu-type opioid receptor, sequence (P35372 whole entry): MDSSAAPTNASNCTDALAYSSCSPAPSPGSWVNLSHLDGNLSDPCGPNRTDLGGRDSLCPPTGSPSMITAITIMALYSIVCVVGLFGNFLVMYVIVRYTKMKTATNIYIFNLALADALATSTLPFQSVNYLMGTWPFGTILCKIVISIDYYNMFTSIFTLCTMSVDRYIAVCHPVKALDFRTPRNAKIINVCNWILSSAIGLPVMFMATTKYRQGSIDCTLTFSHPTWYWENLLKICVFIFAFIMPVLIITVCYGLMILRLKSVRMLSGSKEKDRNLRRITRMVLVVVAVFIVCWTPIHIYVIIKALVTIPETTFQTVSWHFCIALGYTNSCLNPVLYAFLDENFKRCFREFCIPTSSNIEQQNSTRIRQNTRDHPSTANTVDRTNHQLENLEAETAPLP
5-hydroxytryptamine receptor 2B, sequence (P41595 whole entry): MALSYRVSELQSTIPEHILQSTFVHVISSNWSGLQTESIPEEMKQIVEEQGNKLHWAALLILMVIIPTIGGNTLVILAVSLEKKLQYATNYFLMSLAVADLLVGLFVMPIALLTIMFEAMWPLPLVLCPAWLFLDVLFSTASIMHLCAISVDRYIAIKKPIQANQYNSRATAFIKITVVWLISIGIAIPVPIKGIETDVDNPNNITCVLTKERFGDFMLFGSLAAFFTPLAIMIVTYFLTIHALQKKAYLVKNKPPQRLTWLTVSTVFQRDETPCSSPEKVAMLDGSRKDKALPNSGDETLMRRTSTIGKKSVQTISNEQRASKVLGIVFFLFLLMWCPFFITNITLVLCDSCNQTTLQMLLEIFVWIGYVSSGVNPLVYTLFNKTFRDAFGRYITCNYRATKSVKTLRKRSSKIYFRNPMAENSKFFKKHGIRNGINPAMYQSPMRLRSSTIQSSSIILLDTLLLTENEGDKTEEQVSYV

AC50 [1]: > 30 µM
Compound: CCCCN1C[C@H](O)[C@@H](O)[C@H](O)[C@H]1CO

AC50 [2]: > 10 µM | AC50 [3]: > 10 µM | AC50 [4]: > 30 µM | AC50 [5]: > 10 µM
Compound: CCOC(=O)[C@H](CCc1ccccc1)N[C@@H](C)C(=O)N1[C@H](C(=O)O)C[C@@H]2CCC[C@@H]21

AC50 [1]: > 30 µM
Compound: Nc1nc(NC2CC2)c2ncn([C@H]3C=C[C@@H](CO)C3)c2n1 [ABACAVIR]

AC50 [1]: > 30 µM
Compound: CC(=O)NCCCS(=O)(=O)O [ACAMPROSATE]

Compound: CC(=O)Nc1ccc(O)cc1 [ACETAMINOPHEN]
AC50 [6]: > 30 µM

AC50 [1]: > 30 µM
Compound: COc1cc2nc(N(C)CCCNC(=O)C3CCCO3)nc(N)c2cc1OC (centres undefined) [ALFUZOSIN]

Compound: C=CCc1ccccc1OCC(O)CNC(C)C (centres undefined) [ALPRENOLOL]
AC50 [6]: > 0.3 µM | AC50 [1]: > 30 µM

Compound: COC(c1ccccc1)(c1ccccc1)[C@H](Oc1nc(C)cc(C)n1)C(=O)O [AMBRISENTAN]
AC50 [6]: > 30 µM

AC50 [7]: > 10 µM
Compound: CNC(=O)c1ccccc1Sc1ccc2c(/C=C/c3ccccn3)n[nH]c2c1 [AXITINIB]

Compound: CC[C@H]1OC(=O)[C@H](C)[C@@H](O[C@H]2C[C@@](C)(OC)[C@@H](O)[C@H](C)O2)[C@H](C)[C@@H](O[C@@H]2O[C@H](C)C[C@H](N(C)C)[C@H]2O)[C@](C)(O)C[C@@H](C)CN(C)[C@H](C)[C@@H](O)[C@]1(C)O [AZITHROMYCIN]
AC50 [2]: > 10 µM | AC50 [3]: > 10 µM | AC50 [4]: > 30 µM | AC50 [5]: > 10 µM

AC50 [2]: > 10 µM | AC50 [3]: > 10 µM | AC50 [4]: 5.2 µM | AC50 [5]: > 10 µM
Compound: Cc1ccc(-c2cc(C(F)(F)F)nn2-c2ccc(S(N)(=O)=O)cc2)cc1 [CELECOXIB]

AC50 [3]: > 10 µM | AC50 [4]: > 30 µM | AC50 [5]: > 10 µM
Compound: CC1=C(C(=O)O)N2C(=O)[C@@H](NC(=O)[C@H](N)c3ccccc3)[C@H]2SC1 [CEPHALEXIN ANHYDROUS]

Compound: CN1C(=O)CCS(=O)(=O)C1c1ccc(Cl)cc1 (centres undefined) [CHLORMEZANONE]
AC50 [1]: > 30 µM

Compound: Oc1c(Cl)cc(Cl)c2cccnc12 [CHLOROXINE]
AC50 [6]: > 30 µM

AC50 [2]: 4.06 µM | AC50 [3]: > 10 µM | AC50 [4]: > 30 µM | AC50 [5]: 0.412 µM
Compound: CN(C)CCC(c1ccc(Cl)cc1)c1ccccn1 (centres undefined) [CHLORPHENIRAMINE]

AC50 [1]: > 30 µM
Compound: CN(C)/N=N/c1[nH]cnc1C(N)=O [DACARBAZINE]

Compound: CN(C)CCN1C(=O)c2ccccc2N(C)c2ccccc21 [DIBENZEPIN]
AC50 [6]: > 30 µM

Compound: O=C(Cc1ccc(-c2ccccc2)cc1)Nc1ccccn1 [DIFENPIRAMIDE]
AC50 [1]: > 30 µM

Compound: N[C@H](C(=O)O)[C@H](O)c1ccc(O)c(O)c1 [DROXIDOPA]
AC50 [6]: > 30 µM

Compound: C[C@]12CC[C@@H]3c4ccc(O)cc4CC[C@H]3[C@@H]1C[C@@H](O)[C@@H]2O [ESTRIOL]
AC50 [6]: > 30 µM

Compound: O=C(O)c1cc(O)ccc1O [GENTISIC ACID]
AC50 [6]: > 30 µM

Compound: CCC1=C(C)CN(C(=O)NCCc2ccc(S(=O)(=O)NC(=O)N[C@H]3CC[C@H](C)CC3)cc2)C1=O [GLIMEPIRIDE]
AC50 [7]: > 30 µM | AC50 [6]: > 30 µM

AC50 [2]: > 10 µM | AC50 [4]: > 30 µM | AC50 [5]: > 10 µM
Compound: C[C@]12CCC(=O)C=C1CC[C@@H]1[C@@H]2[C@@H](O)C[C@@]2(C)[C@H]1CC[C@]2(O)C(=O)CO [HYDROCORTISONE]

Compound: O=P1(NCCCl)OCCCN1CCCl (centres undefined) [IFOSFAMIDE]
AC50 [1]: > 30 µM

AC50 [2]: > 10 µM | AC50 [3]: > 10 µM | AC50 [1]: > 30 µM | AC50 [4]: > 30 µM | AC50 [5]: > 10 µM
Compound: CCC(C)n1ncn(-c2ccc(N3CCN(c4ccc(OCC5COC(Cn6cncn6)(c6ccc(Cl)cc6Cl)O5)cc4)CC3)cc2)c1=O (centres undefined) [ITRACONAZOLE]

AC50 [2]: > 10 µM
Compound: CN1C(C(=O)Nc2ccccn2)=C(O)c2sc(Cl)cc2S1(=O)=O [LORNOXICAM]

Compound: OCCN1C[C@H](O)[C@@H](O)[C@H](O)[C@H]1CO [MIGLITOL]
AC50 [6]: > 30 µM

Compound: CC(=O)N[C@@H]1[C@@H](O)[C@H](O)[C@@H](CO)O[C@H]1O [N-ACETYLGLUCOSAMINE]
AC50 [6]: > 30 µM

Compound: O=C(CCNNC(=O)c1ccncc1)NCc1ccccc1 [NIALAMIDE]
AC50 [6]: > 30 µM

Compound: CC1(C)NC(=O)N(c2ccc([N+](=O)[O-])c(C(F)(F)F)c2)C1=O [NILUTAMIDE]
AC50 [1]: > 30 µM

AC50 [1]: > 30 µM
Compound: Cc1nc([N+](=O)[O-])cn1-c1ccc([N+](=O)[O-])cc1 [NITREFAZOLE]

Compound: CC[C@H]1[C@@H](O)[C@@H]2[C@H](CC[C@]3(C)[C@@H]([C@H](C)CCC(=O)O)CC[C@@H]23)[C@@]2(C)CC[C@@H](O)C[C@@H]12 [OBETICHOLIC ACID]
AC50 [6]: > 30 µM | AC50 [1]: > 30 µM

Compound: CC[N+]1(C)[C@@H]2CC(OC(=O)[C@H](CO)c3ccccc3)C[C@H]1[C@@H]1O[C@@H]12 (some centres undefined) [OXITROPIUM]
AC50 [6]: > 30 µM

Compound: CC(C)(C)NC[C@H](O)COc1ccccc1C1CCCC1 [PENBUTOLOL]
AC50 [6]: > 30 µM

Compound: CC(C)(S)[C@@H](N)C(=O)O [PENICILLAMINE]
AC50 [6]: > 30 µM

Compound: COCCCN1CCC(NC(=O)c2cc(Cl)c(N)c3c2OCC3)CC1 [PRUCALOPRIDE]
AC50 [7]: > 30 µM | AC50 [8]: > 30 µM

AC50 [1]: > 30 µM
Compound: COc1ccccc1OCC(O)CN1CCN(CC(=O)Nc2c(C)cccc2C)CC1 (centres undefined) [RANOLAZINE]

Compound: CS(=O)(=O)c1ccc(C2=C(c3ccccc3)C(=O)OC2)cc1 [ROFECOXIB]
AC50 [2]: > 10 µM | AC50 [6]: > 30 µM | AC50 [3]: > 10 µM | AC50 [1]: > 30 µM | AC50 [4]: > 30 µM | AC50 [5]: > 10 µM

Compound: CO[C@H]1C[C@@H]2CC[C@@H](C)[C@@](O)(O2)C(=O)C(=O)N2CCCC[C@H]2C(=O)O[C@H]([C@H](C)C[C@@H]2CC[C@@H](O)[C@H](OC)C2)CC(=O)[C@H](C)/C=C(\C)[C@@H](O)[C@@H](OC)C(=O)[C@H](C)C[C@H](C)/C=C/C=C/C=C/1C [SIROLIMUS]
AC50 [4]: 23.8 µM

Compound: Cc1cn([C@H]2C=C[C@@H](CO)O2)c(=O)[nH]c1=O [STAVUDINE]
AC50 [2]: > 10 µM | AC50 [6]: > 30 µM | AC50 [3]: > 10 µM | AC50 [4]: > 30 µM | AC50 [5]: > 10 µM

AC50 [2]: > 10 µM | AC50 [3]: 1.92 µM | AC50 [1]: > 30 µM | AC50 [4]: > 30 µM | AC50 [5]: > 10 µM
Compound: Clc1ccc2nsnc2c1NC1=NCCN1 [TIZANIDINE]

Compound: CCOC(=O)[C@H](CCc1ccccc1)N[C@@H](C)C(=O)N1[C@H](C(=O)O)C[C@H]2CCCC[C@@H]21 [TRANDOLAPRIL]
AC50 [6]: > 30 µM

Compound: O=C(O[C@H]1C[C@H]2CC[C@@H](C1)[N+]21CCCC1)C(O)(c1ccccc1)c1ccccc1 [TROSPIUM]
AC50 [1]: > 30 µM

Compound: CCCCCCOc1nsnc1C1=CCCN(C)C1 [XANOMELINE]
AC50 [6]: > 30 µM

Compound: Cc1cn([C@H]2C[C@H](N=[N+]=[N-])[C@@H](CO)O2)c(=O)[nH]c1=O [ZIDOVUDINE]
AC50 [3]: > 10 µM | AC50 [4]: > 30 µM | AC50 [5]: > 10 µM
